Earlier results, collected in US20120277197A1, “TIGECYCLINE FORMULATIONS” (WYETH, priority 2008, published 2012).

Conditions: cited from earlier work; for activity retained after frozen storage: after 14-23 days of frozen storage

| Compound | activity retained after frozen storage | further results |
| --- | --- | --- |
| penicillin | retained essentially all of their activity |  |
| CC(=O)OCC1=C(C(=O)O)N2C(=O)[C@@H](NC(=O)Cc3cccs3)[C@H]2SC1 [cephalothin] | retained essentially all of their activity |  |
| C[C@@H](O)[C@H]1C(=O)N2C(C(=O)O)=C(S[C@@H]3CN[C@H](C(=O)Nc4cccc(C(=O)O)c4)C3)[C@H](C)[C@H]12 [ertapenem] |  | stability of solutions frozen at −20° C. (frozen at −20° C.): extreme variability in stability |
| CC1(C)S[C@@H]2[C@H](NC(=O)C(C(=O)O)c3ccccc3)C(=O)N2[C@H]1C(=O)O (some centres unmarked) [carbenicillin] | retained essentially all of their activity |  |
| CC1(C)S[C@@H]2[C@H](NC(=O)[C@H](N)c3ccc(O)cc3)C(=O)N2[C@H]1C(=O)O [amoxycillin sodium] |  | stability on freezing solutions (in normal saline or in glucose): markedly reduced stability |
